Measured values taken from PubChem BioAssay (NCI).
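Briefly, cells in 96-well plates were exposed to five compound concentrations for 48 h, and endpoints were estimated by linear interpolation. TGI: concentration producing complete growth inhibition.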

What was measured:
Assay in all cases: NCI anticancer screen, dose series, 48 h
SK-MEL-2 melanoma = tested on: SK-MEL-2 melanoma
SNB-75 CNS = tested on: SNB-75 CNS
U251 CNS = tested on: U251 CNS
NCI/ADR-RES ovarian = tested on: NCI/ADR-RES ovarian
DU-145 prostate = tested on: DU-145 prostate
UACC-62 melanoma = tested on: UACC-62 melanoma
SK-OV-3 ovarian = tested on: SK-OV-3 ovarian
SF-295 CNS = tested on: SF-295 CNS
MDA-MB-435 = tested on: MDA-MB-435
A498 renal = tested on: A498 renal
NCI-H460 lung = tested on: NCI-H460 lung
A549 NSCLC = tested on: A549 NSCLC
HS 578T breast = tested on: HS 578T breast
OVCAR-5 ovarian = tested on: OVCAR-5 ovarian
KM12 colon = tested on: KM12 colon
SF-539 CNS = tested on: SF-539 CNS
SNB-19 CNS = tested on: SNB-19 CNS
NCI-H226 lung = tested on: NCI-H226 lung
HOP-62 NSCLC = tested on: HOP-62 NSCLC

Molecule `C#CCn1c(=O)c(I)cn(/C(=C\C(=O)OCC)C(=O)OCC)c1=O` has a TGI (SK-MEL-2 melanoma) of 37.2 µM, a TGI (SNB-75 CNS) of 30.9 µM and a TGI (U251 CNS) of 29.1 µM. The TGI (NCI/ADR-RES ovarian) was 65.1 µM, the TGI (DU-145 prostate) was 31.3 µM and the TGI (UACC-62 melanoma) was 30.6 µM. For the same molecule, the TGI (SK-OV-3 ovarian) was 31.8 µM, the TGI (SF-295 CNS) was 36.8 µM and the TGI (MDA-MB-435) was 30.9 µM. It also gave a TGI (A498 renal) of 31.9 µM, a TGI (NCI-H460 lung) of 39.9 µM and a TGI (A549 NSCLC) greater than 100 µM. It also gave a TGI (HS 578T breast) greater than 100 µM, a TGI (OVCAR-5 ovarian) of 40.2 µM and a TGI (KM12 colon) of 31.7 µM. For the same molecule, the TGI (SF-539 CNS) was 33.4 µM, the TGI (SNB-19 CNS) was 64 µM and the TGI (NCI-H226 lung) was 38.2 µM. The TGI (HOP-62 NSCLC) was 33.6 µM.
